Assay results reported in patent publication US20250340902A1, “GENE THERAPY FOR BVES-RELATED DISORDERS” (OHIO STATE INNOVATION FOUNDATION, priority 2022, published 2025).

What was measured:
[1] = test system: ADCY3/ADCY6 double KO HEK293 cells with stable expression of cAMPr; assay: cAMPr reporter assay; assay type: cell-based, human; settings: 500 μM
BVES-KO mice = assay: Bortezomib treatment of BVES-KO mice; assay type: in vivo, mouse; settings: vs vehicle
Method: Histology analysis and immunofluorescence staining. The skeletal muscles were embedded in optimal cutting temperature (OCT) compound, flash frozen using isopentane chilled in liquid nitrogen and kept at −80° C. until used. Cryosections were prepared using a cryostat Leica CM3054. For hematoxylin and eosin (H&E), transversely oriented sections (10 μm) were cut at mid-point, stained and imaged using a Nikon Ti-E inverted fluorescence microscope equipped with a Lumenera Infinity Color CCD camera and a Nikon Super Fluor 20×0.75 NA objective lens (Nikon Inc., Melville, NY) as previously described.
For immunofluorescence staining, frozen tissue sections (10 μm) were fixed with 4% paraformaldehyde for 10 minutes at room temperature. After washing with PBS, the slides were blocked with 5% BSA/PBS for one hour. The slides were incubated with the indicated primary antibodies (Table 3) at 4° C. overnight. After extensive washing with PBS, the slides were incubated with the secondary antibodies (1:400) (Table 3) for one hour at room temperature. The slides were sealed with […] Antifade Mounting Medium with DAPI (Vector Laboratory, Burlingame, CA). The images were taken under a LSM780 microscope (Zeiss, Germany) and assembled to figures using Adobe Photoshop 21.0.2 (Adobe, San Jose, CA). Fiber size and CNF quantification were carried out using Myosight with manual calibration on the entire cross-sections of GA muscles.
Bortezomib Treatment. Bortezomib was purchased from Selleck Chemicals (#S0130, Houston, TX). A stock solution (5 mg/ml) dissolved in the vehicle 2% DMSO, 30% PEG300 and ddH2O were aliquoted and stored at […]. An equal volume of Bortezomib (0.8 mg/kg diluted with the vehicle) or vehicle was I.P. injected once bi-weekly into BVES-KO mice (N=6 per treatment) at 12 weeks age, respectively. After two months of treatment, force measurement and exercise evaluation were performed. Mice were sacrificed after 3-month treatment. QU and GA muscles were processed for histopathology, immunofluorescence and Western blot analyses.
Force measurement. The muscle contractility was measured using an in vivo muscle test system (Aurora Scientific Inc) as previously described. Briefly, mice were anesthetized with 2% (w/v) isoflurane and anesthesia was maintained by 2% isoflurane (w/v) during muscle contractility measurement. Maximum plantarflexion tetanic torque was measured during a train of supramaximal electric stimulations of the tibial nerve (pulse frequency 150 Hz, pulse duration 0.2 ms) using the DMA v5.501 (Aurora Scientific Inc).
Exercise and exhaustion assay. Time and distance to exhaustion was performed as previously described. Briefly, prior to training, the randomized mice were firstly acclimated to the treadmill (LE8710MTS, Harvard Apparatus) for two consecutive days at slow speed (10 cm/s) for 5 min. On the third day, mice were placed on an uphill) (15° treadmill with an initial speed of 10 cm/s, increased every 4 min by 5 cm/s. Mice were considered to be exhausted when the animal's hindlimbs remained on the electric grid for more than 10 s. Time and distance were automatically collected via the software SeDaCOM (Harvard Apparatus).

[2] = test system: WT and BVES-KO skeletal muscles; assay: Autophagic flux assay (colchicine), LC3B Western blot in GA muscles; assay type: in vivo, mouse; settings: 0.4 mg/kg I.P. daily 7 days
Method: Autophagic flux assay. A stock solution of colchicine (4 mg/ml in sterile ddH2O, C9754, Sigma-Aldrich) was prepared and stored at −20° C. until the day of treatment. Immediately prior to administration, the colchicine stock solution was diluted to 0.1 mg/mL in sterile ddH2O water. An equal volume of colchicine (0.4 mg/kg) or vehicle was administered to mice (6 weeks old) daily via I.P. injection for 7 days. Muscle tissues were harvested from treated mice on the day after the final treatment.
Western blot. The cells and tissues were homogenized/lysed with cold RIPA buffer supplemented with protease inhibitors, and the extracted proteins were quantified by DC™ Protein Assay Reagent (Bio-Rad, Hercules, CA). The membrane extraction was performed using the Membrane Protein Extraction Kit (ab65400, Abcam, Waltham, MA) according to the manufacturer's instruction. The extracted protein samples were separated by stain-free SDS-PAGE gels (Bio-Rad, 4-15%) and transferred onto Nitrocellulose Membranes (0.45 μm). The membrane was incubated with the primary antibodies (Table 3) at 4° C. overnight. Secondary HRP-conjugated goat anti-mouse (1:4000) and goat anti-rabbit (1:4000) antibodies were obtained from Cell Signaling Technology (Danvers, MA). […] Western blots were quantified using Image Lab 6.0.1 software (Bio-Rad Laboratories, Hercules, CA) according to the manufacturer's instruction.

CC(C)Cn1c(=O)n(C)c(=O)c2[nH]cnc21 [IBMX, 3-isobutyl-1-methylxanthine]
cAMP (cAMPr fluorescence) change ([1]; ADCY9-transfected cells): gradual increase
cAMP (cAMPr fluorescence) change ([1]; cells co-transfected with BVES and ADCY9): substantially reduced cAMP elevation

CC(C)C[C@H](NC(=O)[C@H](Cc1ccccc1)NC(=O)c1cnccn1)B(O)O [bortezomib]
body weight (BVES-KO mice; 0.8 mg/kg I.P. once bi-weekly, 2 months): significantly increased
fiber size (CSA, GA) (BVES-KO mice; 0.8 mg/kg I.P., 2 months): significantly increased
muscle contractility (tetanic torque) (BVES-KO mice; 0.8 mg/kg I.P., 2 months): enhanced
physical performance on treadmill running (time to exhaustion, total running distance) (BVES-KO mice; 0.8 mg/kg I.P., 2 months): improved
mass of quadriceps and gastrocnemius muscles (normalized to body weight) (BVES-KO mice; 0.8 mg/kg I.P.): significantly increased
muscle pathology (H&E staining, GA) (BVES-KO mice; 0.8 mg/kg I.P.): remarkably improved
percentage of CNFs (GA) (BVES-KO mice; 0.8 mg/kg I.P.): reduced

COc1cc2c(c(OC)c1OC)-c1ccc(OC)c(=O)cc1[C@@H](NC(C)=O)CC2 [colchicine]
LC3B (Western blot) [2]: significant increase
